Patent US8268882B2 (priority 2009, dated 2012)
pEC50, pIC50: −log10 of the molar value. Where two headings read alike, the source gives them in different places.

Columns and labels:
in vitro = details: human
[1] = system: Human T cell lymphoma (Jurkat) cells
[2] = system: IL-2 production in Jurkat cells; assay: cells; type: cell-based, human; details: for pIC50: read-out: immunosuppression IL-2 (IC50)

| Molecule | pEC50 (in vitro) | cytotoxicity in MTT assay compared with triptolide [1] | cytotoxicity to Jurkat cells [1] | inhibition of IL-2 production [2] | pIC50 ([2]; Homo sapiens, Jurkat, 24 h) | pEC50 ([1]; read-out: Viability/Cytotoxicity MTT (ED50), Jurkat cells, 24 h culture, test compounds incubated in serum for 24 hrs) | pIC50 ([2]; Jurkat cells stimulated with PMA and PHA, 24 hrs, test compounds incubated in serum for 24 hrs) |
| --- | --- | --- | --- | --- | --- | --- | --- |
| CC(C)[C@]1(O)[C@H](Cl)[C@@H]2O[C@]23[C@@]2(OC(=O)O[C@H]12)[C@H](Cl)C[C@H]1C2=C(CC[C@@]13C)C(=O)OC2 [PG757] | 7.49 | significantly more cytotoxic | cytotoxic to Jurkat cells | inhibited IL-2 production | 8.05 | – | – |
| CC(C)[C@]12O[C@H]1[C@@H]1O[C@]13[C@]1(O[C@H]1C[C@H]1C4=C(CC[C@@]13C)C(=O)OC4)[C@@H]2OC(=O)C(=O)O[C@@H]1[C@@]2(C(C)C)O[C@H]2[C@@H]2O[C@]23[C@]12O[C@H]2C[C@H]1C2=C(CC[C@@]13C)C(=O)OC2 [PG782] | 7.28 | more potent than triptolide | cytotoxic to Jurkat cells | inhibited IL-2 production | 8.70 | – | – |
| CC(C)[C@]12O[C@H]1[C@@H]1O[C@]13[C@@]1(OC(=O)O[C@H]21)[C@H](Cl)C[C@H]1C2=C(CC[C@@]13C)C(=O)OC2 [PG762] | 7.22 | comparable potency | cytotoxic to Jurkat cells | inhibited IL-2 production | 8.05 | – | – |
| triptolide [PG490, reference compound] | – | – | – | – | – | 7.22 | 8.40 |
